In patent US11292776B2, “Small molecule inhibitors of fungal hyphae and biofilm formation” (University of Sharjah, priority 2019, dated 2022):
≈ marks a conversion by molar mass, not a printed value.

What was measured:
C. albicans yeast = experiment: Antimicrobial activity / MIC against C. albicans growing in yeast-forming conditions; format: cell-based, C. albicans SC5314; details: for MIC: 24 h; for MIC / MIC C. albicans Yeast: MIC100, lowest concentration inhibiting 100% of growth, 24 hrs incubation; for IC50: Candida albicans, −log IC50 against C. albicans, training set of 3D QSAR, read-out: pIC50 Experimental (converted)
Experimental: (§1) Collections of bacterial and fungal strains were obtained from the laboratory of Dr. Ibrahim at Harbor-UCLA medical center, Torrance, Calif. The bacterial strains used in this study were the Gram-negative bacterium Escherichia coli and the Gram-Positive bacterium methicillin-resistant Staphylococcus aureus (MRSA) LAC300. All bacterial strains were cultured on sterile Luria-Bertani medium (LB). The fungal strain used in this study was C. albicans SC5314. C. albicans was inoculated into sterile yeast potato dextrose broth (YPD) and incubated for 24 h at 37° C. (This was used as an initial culture for all studies described), and incubated in two different media, Yeast Nitrogen Base (YNB) broth or Roswell Park Memorial Institute medium (RPMI-1640). Polymyxin B (colistin), vancomycin and Ketoconazole were purchased from (Sigma-Aldrich).
(§2) The antimicrobial activity of compounds SR1-8 on agar plates, liquid broth media and MIC were measured according to modified Clinical and Laboratory Standards Institute (CLSI). Briefly, 0.1 mL containing 10^5 CFU/mL was spread on Luria-Bertani (LB) agar plates. The plates were then incubated at 37° C. for […] with filter discs (8 mm diameter) saturated with different dilutions of the compounds (1-400 μg/mL). The inhibition zones (mm) were measured by determining the diameter of the clear area. Similarly, the activity in liquid media was measured by incubating the aforementioned concentrations of the compounds into LB broth media inoculated with 10^5 CFU/mL in 96-well microplates at 37° C. for 24 h. The turbidity representing the microbial growth was measured by microplate reader (DYNEX technologies) at OD600. […] Each test was performed in triplicate. Ketoconazole, colistin and vancomycin were employed as positive controls against C. albicans, E. coli and S. aureus bacteria, respectively. Cultures without the compounds or antimicrobials were employed as negative control.

[1] = system: C. albicans hyphae / biofilm; experiment: Inhibition of Candida biofilm (hyphae) formation, microtiter plate MTT assay; format: cell-based, C. albicans SC5314; details: for MIC: MIC100 for biofilm (hyphal) formation, 24 hrs incubation, RPMI-1640, 37° C.; for inhibition at 10 µg/mL: 10 μg/mL, hyphae growth conditions
Experimental: as §1
The MICs for cells forming biofilm were determined by a microtiter plate assay. Briefly, a 96-well polystyrene microtiter plate was seeded with 200 μL of RPMI-1640 containing 10^6 C. albicans cells in the presence of the compound of interest at concentration range of 1-100 μg/mL. After 24 h of incubation at 37° C., the biofilms were washed and the fungal viability was analyzed using 3-(4,5-dimethylthiazol-2-yl)-2,5-diphenyl tetrazolium bromide (MTT) (Sigma) and the final absorbance was measured at 540 nm. The assay was performed in triplicate and repeated three times. The MIC of the compounds causing 100% inhibition of C. albicans biofilm formation was determined by measuring the metabolic activity of biofilm compared to solvent control.

E. coli = experiment: Antimicrobial activity / MIC against E. coli; format: cell-based, Escherichia coli; details: MIC100, 24 hrs incubation; for MIC: Escherichia coli, read-out: MIC Bacteria E. Coli
Experimental: as §1, §2

S. aureus = experiment: Antimicrobial activity / MIC against S. aureus; format: cell-based, methicillin-resistant Staphylococcus aureus (MRSA) LAC300; details: Staphylococcus aureus; MIC100; 24 hrs incubation; read-out: MIC Bacteria S. aureus
Experimental: as §1, with “Polymyxin B (colistin), vancomycin and Ketoconazole were purchased from (Sigma-Aldrich).” left out
The antimicrobial activity of compounds SR1-8 on agar plates, liquid broth media and MIC were measured according to modified Clinical and Laboratory Standards Institute (CLSI). […] The inhibition zones (mm) were measured by determining the diameter of the clear area. Similarly, the activity in liquid media was measured by incubating the aforementioned concentrations of the compounds into LB broth media inoculated with 10^5 CFU/mL in 96-well microplates at 37° C. for 24 h. The turbidity representing the microbial growth was measured by microplate reader (DYNEX technologies) at OD600. […]

Experimental for human erythrocytes: DPBS-washed erythrocytes (3×10^6 cells per well) were incubated in 96-well plate with 200 μg/mL of SR compounds at 37° C. for 30 min. The hemoglobin released from lysed erythrocytes was measured using micro-plate reader at 405 nm. The absorbance value for each sample was subtracted from the absorbance value of cells treated only with washing buffer and the hemolytic activity (%) was calculated. The data display the mean±standard error (SEM) of three independent measurements.
The cytotoxic assay of SR compounds was measured by quantifying the amount of hemoglobin released by lysis of human erythrocytes as previously described. Briefly, fresh whole blood from healthy individual was collected by venipuncture and the blood was immediately centrifuged at 500 g for 10 min using benchtop centrifuge (Eppendorf 5804R Refrigerated Benchtop). […] The plate was incubated at 37° C. for 30 min, and the intact cells were precipitated by centrifugation at 500 g for 10 min at 4° C. and the supernatants (125 μL) were transferred to a flat-bottom 96-well plate to measure hemoglobin release by absorbance at 405 nm using a microplate reader. The absorbance values for each sample were subtracted from the absorbance value obtained for washing buffer-treated cells and the hemolytic activity (%) was calculated. […]

With `CC(=O)N1CCN(c2ccc(OCC3COC(Cn4ccnc4)(c4ccc(Cl)cc4Cl)O3)cc2)CC1` (centres unmarked) [Ketoconazole, reference compound] the MIC (C. albicans yeast) was 3 µg/mL (≈ 5.65 µM).

With `COc1cc(C=C2SC(=S)NC2=O)ccc1OCc1ccc(C)cc1` [SR1, 5-[3-Methoxy-4-(4-methyl-benzyloxy)-benzylidene]-2-thioxo-thiazolidin-4-one] the MIC (C. albicans yeast) was 400 µg/mL (≈ 1080 µM), the IC50 (C. albicans yeast) was 1080 µM and the “MIC C. albicans Yeast” value (C. albicans yeast) was greater than 400 ± 15 µg/mL. The MIC [1] was 20 ± 5 µg/mL (≈ 53.8 µM), the MIC (E. coli) was 100 ± 10 µg/mL (≈ 269 µM) and the MIC (S. aureus) was greater than 400 µg/mL. It also gave a melting point of 205 to 207 °C.

In the case of `Cc1ccc(COc2ccc(C=C3SC(=S)NC3=O)cc2Br)cc1` [SR2, 5-[3-Bromo-4-(4-methyl-benzyloxy)-benzylidene]-2-thioxo-thiazolidin-4-one], the MIC (C. albicans yeast) is reported as 200 µg/mL (≈ 476 µM), the IC50 (C. albicans yeast) is reported as 475 µM and the “MIC C. albicans Yeast” value (C. albicans yeast) is reported as 200 ± 15 µg/mL (≈ 476 µM). It also gave an MIC [1] of 10 ± 2 µg/mL (≈ 23.8 µM), an MIC (E. coli) of 100 ± 10 µg/mL (≈ 238 µM) and a melting point of 217 to 219 °C.

For `Cc1ccc(COc2ccc(C=C3SC(=S)NC3=O)cc2Cl)cc1` [SR3, 5-[3-Chloro-4-(4-methyl-benzyloxy)-benzylidene]-2-thioxo-thiazolidin-4-one], the MIC (C. albicans yeast) was 400 µg/mL (≈ 1060 µM), the IC50 (C. albicans yeast) was 1060 µM and the “MIC C. albicans Yeast” value (C. albicans yeast) was greater than 400 ± 10 µg/mL. For the same molecule, the MIC [1] was 20 ± 5 µg/mL (≈ 53.2 µM), the MIC (E. coli) was 400 ± 10 µg/mL (≈ 1060 µM) and the melting point was 225 to 227 °C.

With `COc1cc(C=C2SC(=S)NC2=O)ccc1OCc1ccc(C(F)(F)F)cc1` [SR4, 5-[3-Methoxy-4-(4-trifluoromethyl-benzyloxy)-benzylidene]-2-thioxo-thiazolidin-4-one] the MIC (C. albicans yeast) was 200 µg/mL (≈ 470 µM), the IC50 (C. albicans yeast) was 456 µM and the “MIC C. albicans Yeast” value (C. albicans yeast) was 200 ± 10 µg/mL (≈ 470 µM). For the same molecule, the inhibition at 10 µg/mL [1] was 50%, the MIC [1] was 20 ± 5 µg/mL (≈ 47 µM) and the MIC (E. coli) was 100 ± 10 µg/mL (≈ 235 µM). It also gave a melting point of 209 to 211 °C.

In the case of `O=C1NC(=S)SC1=Cc1ccc(OCc2ccc(C(F)(F)F)cc2)c(Br)c1` [SR5, 5-[3-Bromo-4-(4-trifluoromethyl-benzyloxy)-benzylidene]-2-thioxo-thiazolidin-4-one], the MIC (C. albicans yeast) is reported as 200 µg/mL (≈ 422 µM), the IC50 (C. albicans yeast) is reported as 470 µM and the “MIC C. albicans Yeast” value (C. albicans yeast) is reported as 200 ± 15 µg/mL (≈ 422 µM). The MIC [1] was 20 ± 3 µg/mL (≈ 42.2 µM), the MIC (E. coli) was 400 ± 20 µg/mL (≈ 843 µM) and the melting point was 210 to 212 °C.

With `O=C1NC(=S)SC1=Cc1ccc(OCc2cccc(C(F)(F)F)c2)c(Br)c1` [SR6, 5-[3-Bromo-4-(3-trifluoromethyl-benzyloxy)-benzylidene]-2-thioxo-thiazolidin-4-one] the MIC (C. albicans yeast) was 125 µg/mL (≈ 264 µM), the IC50 (C. albicans yeast) was 264 µM and the “MIC C. albicans Yeast” value (C. albicans yeast) was 125 ± 10 µg/mL (≈ 264 µM). For the same molecule, the inhibition at 10 µg/mL [1] was 50%, the MIC [1] was 10 ± 5 µg/mL (≈ 21.1 µM) and the MIC (E. coli) was 400 ± 10 µg/mL (≈ 843 µM). For the same molecule, the melting point was 235 to 237 °C.

With `COc1cc(C=C2SC(=S)NC2=O)ccc1OCc1cccc(C(F)(F)F)c1` [SR7, 5-[3-Methoxy-4-(3-trifluoromethyl-benzyloxy)-benzylidene]-2-thioxo-thiazolidin-4-one] the MIC (C. albicans yeast) was 125 µg/mL (≈ 294 µM), the IC50 (C. albicans yeast) was 264 µM and the “MIC C. albicans Yeast” value (C. albicans yeast) was 125 ± 10 µg/mL (≈ 294 µM). For the same molecule, the inhibition at 10 µg/mL [1] was 90%, the MIC [1] was 10 ± 3 µg/mL (≈ 23.5 µM) and the MIC (E. coli) was 100 ± 5 µg/mL (≈ 235 µM). It also gave a melting point of 199 to 201 °C.

With `O=C1NC(=S)SC1=Cc1ccc(OCc2cccc(C(F)(F)F)c2)c(Cl)c1` [SR8, 5-[3-Chloro-4-(3-trifluoromethyl-benzyloxy)-benzylidene]-2-thioxo-thiazolidin-4-one] the MIC (C. albicans yeast) was 125 µg/mL (≈ 291 µM), the IC50 (C. albicans yeast) was 294 µM and the “MIC C. albicans Yeast” value (C. albicans yeast) was 125 ± 10 µg/mL (≈ 291 µM). For the same molecule, the inhibition at 10 µg/mL [1] was 50%, the MIC [1] was 20 ± 5 µg/mL (≈ 46.5 µM) and the MIC (E. coli) was 100 ± 10 µg/mL (≈ 233 µM). For the same molecule, the melting point was 224 to 226 °C.

For Colistin [reference compound], the “MIC Bacteria E. Coli” value (E. coli) was 5 µg/mL.

For Triton X-100, the “erythrocyte hemolysis (positive control)” value (human erythrocytes) was 100%.
